This note sets out measurements from US7709498B2, “Quinoline derivatives as antibacterial agents” (Janssen Pharmaceutica N.V., priority 2005, dated 2010).

In brackets after ≈: the same amount, converted by molar mass.

Common to all, as to format: cell-based
In assay [1] the test system is methicilline resistant Staphylococcus aureus (MRSA) (a clinical isolate from the University of Antwerp). Description: Microtitre plate assay, IC90 determination, STA RMETH. The following applies: 90% inhibitory concentration for bacterial growth, 37° C., 24 hours, resazurin fluorescence. As for the experimental part:
(§1) The bacteria used in this study were grown overnight in flasks containing 100 ml Mueller-Hinton Broth (Becton Dickinson—cat. no. 275730) in sterile de-ionized water, with shaking, at 37° C. Stocks (0.5 ml/tube) were stored at −70° C. until use. Bacteria titrations were performed in microtiter plates to detect the TCID50, in which the TCID50 represents the dilution that gives rise to bacterial growth in 50% of inoculated cultures.
(§2) In general, an inoculum level of approximately 100 TCID50 was used for susceptibility testing.
(§3) Flat-bottom, sterile 96-well plastic microtiter plates were filled with 180 μl of sterile deionized water, supplemented with 0.25% BSA. Subsequently, stock solutions (7.8× final test concentration) of compounds were added in 45 μl volumes in column 2. Serial five-fold dilutions (45 μl in 180 μl) were made directly in the microtiter plates from column 2 to reach column 11. Untreated control samples with (column 1) and without (column 12) inoculum were included in each microtiter plate. Depending on the bacteria type, approximately 10 to 60 CFU per well of bacteria inoculum (100 TCID50), in a volume of 100 μl in 2.8× Mueller-Hinton broth medium, was added to the rows A to H, except column 12. The same volume of broth medium without inoculum was added to column 12 in row A to H. The cultures were incubated at 37° C. for 24 hours under a normal atmosphere (incubator with open air valve and continuous ventilation). At the end of incubation, one day after inoculation, the bacterial growth was quantitated fluorometrically. Therefore resazurin (0.6 mg/ml) was added in a volume of 20 μl to all wells 3 hours after inoculation, and the plates were re-incubated overnight. A change in colour from blue to pink indicated the growth of bacteria. The fluorescence was read in a computer-controlled fluorometer (Cytofluor Biosearch) at an excitation wavelength of 530 nm and an emission wavelength of 590 nm. The % growth inhibition achieved by the compounds was calculated according to standard methods. The IC90 (expressed in μg/ml) was defined as the 90% inhibitory concentration for bacterial growth.
(§4) BSU 3639 means Bacillus subtilis (ATCC43639); ECO 25922 means Escherichia coli (ATCC25922); EFA 14506 means Enterococcus faecalis (ATCC14506); EFA 29212 means Enterococcus faecalis (ATCC29212); LMO 49594 means Listeria monocytogenes (ATCC49594); PAE 27853 means Pseudomonas aeruginosa (ATCC27853); SMU 33402 means Streptococcus mutans (ATCC33402); SPN 6305 means Streptococcus pneumoniae (ATCC6305); SPY 8668 means Streptococcus pyogens (ATCC8668); STA 43300 means Staphylococcus aureus (ATCC43300); STA 25923 means Staphylococcus aureus (ATCC25923); STA 29213 means Staphylococcus aureus (ATCC29213); STA RMETH means methicilline resistant Staphylococcus aureus (MRSA) (a clinical isolate from the University of Antwerp). ATCC means American type tissue culture.

Assay [2] deals with Enterococcus faecalis (ATCC14506). Description: Microtitre plate assay, IC90 determination, EFA 14506. The following applies: 90% inhibitory concentration for bacterial growth, 37° C., resazurin fluorescence. As to the method: as §1, §2, §3, §4
Assay [3] concerns Bacillus subtilis (ATCC43639). Description: Microtitre plate assay, IC90 determination, BSU 43639. Particulars: 90% inhibitory concentration for bacterial growth, 37° C., resazurin fluorescence; for IC90: Bacillus subtilis, ATCC43639, 24 h, read-out: IC90 (μg/ml) BSU 43639. As to the method: as §1, §2, §3, §4
Assay [4] deals with Enterococcus faecalis (ATCC29212). Put plainly: Microtitre plate assay, IC90 determination, EFA 29212. The following applies: 90% inhibitory concentration for bacterial growth, 37° C., resazurin fluorescence; for IC90 (μg/ml) EFA 29212: 24 hours. As for the experimental part: as §1, §2, §3, §4
In assay [5] the test system is Staphylococcus aureus (ATCC25923). Description: Microtitre plate assay, IC90 determination, STA 25923. The following applies: 90% inhibitory concentration for bacterial growth, 37° C., resazurin fluorescence; for IC90 (μg/ml) STA 25923: 24 hours; for IC90: Staphylococcus aureus, ATCC25923, 24 h, read-out: IC90 (μg/ml) STA 25923. As to the method:
as §1, §2, §3, §4
On the technique in general: Alamar Blue is a resazurin reagent that responds to reducing activity.

Assay [6] has as its system Listeria monocytogenes (ATCC49594). Description: Microtitre plate assay, IC90 determination, LMO 49594. The following applies: 90% inhibitory concentration for bacterial growth, 37° C., resazurin fluorescence; for IC90 (μg/ml) LMO 49594: 24 hours. As for the experimental part:
as §1, §2, §3, §4

Assay [7] has as its system Streptococcus pyogens (ATCC8668). Description: Microtitre plate assay, IC90 determination, SPY 8668. The following applies: 90% inhibitory concentration for bacterial growth, 37° C., resazurin fluorescence; for IC90 (μg/ml) SPY 8668: 24 hours. As to the method: as §1, §2, §3, §4
Assay [8] has as its system Streptococcus pneumoniae (ATCC6305). Put plainly: Microtitre plate assay, IC90 determination, SPN 6305. The following applies: 90% inhibitory concentration for bacterial growth, 37° C., resazurin fluorescence; for IC90 (μg/ml) SPN 6305: 24 hours. As for the experimental part:
as §1, §2, §3, §4

For assay [9], the system named is Staphylococcus aureus (ATCC43300). Put plainly: Microtitre plate assay, IC90 determination, STA 43300. The following applies: Staphylococcus aureus, ATCC43300, 24 h, 90% inhibitory concentration for bacterial growth, 37° C., resazurin fluorescence, read-out: IC90 (μg/ml) STA 43300. As to the method: as §1, §2, §3, §4
For assay [10], the system named is Streptococcus mutans (ATCC33402). Description: Microtitre plate assay, IC90 determination, SMU 33402. The following applies: Streptococcus mutans, ATCC33402, 24 h, 90% inhibitory concentration for bacterial growth, 37° C., resazurin fluorescence, read-out: IC90 (μg/ml) SMU 33402. As to the method: as §1, §2, §3, §4
For assay [11], the system named is Pseudomonas aeruginosa (ATCC27853). Description: Microtitre plate assay, IC90 determination, PAE 27853. The following applies: 90% inhibitory concentration for bacterial growth, 37° C., resazurin fluorescence; for IC90: Pseudomonas aeruginosa, ATCC27853, 24 h, read-out: IC90 (μg/ml) PAE 27853. As for the experimental part:
as §1, §2, §3, §4

`COc1nc2ccc(Br)cc2cc1C(c1ccccc1)C(O)(CCN1CCN(C)CC1)c1cc(Br)cc2ccccc12` (racemic) [Compound 151]: in assay [1], the “IC90 (μg/ml) STA RMETH” value worked out at 15.4 µg/mL (≈ 22.3 µM). For the same compound, the “IC90 (μg/ml) EFA 14506” value in assay [2] (24 hours) was 15.4 µg/mL (≈ 22.3 µM).

As for `COc1nc2ccc(Br)cc2cc1C(c1ccccc1)C(O)(CCN(C)C)c1ccc2ccccc2c1` (stereo not shown) [Compound 45], the IC90 in assay [3] stood at 11.1 µg/mL (≈ 20 µM); in assay [2] (Enterococcus faecalis, ATCC14506, 24 h, read-out: IC90 (μg/ml) EFA 14506), 12.4 µg/mL (≈ 22.3 µM).

For `COc1nc2ccc(Br)cc2cc1C(c1ccccc1)C(O)(CCN1CCN(C)CC1)c1ccc2cc(Br)ccc2c1` (racemic) [Compound 154], the “IC90 (μg/ml) BSU 43639” value in [3] (24 hours) came out at 10.9 µg/mL (≈ 15.8 µM). Besides, the “IC90 (μg/ml) STA RMETH” value in assay [1] was determined as 24.5 µg/mL (≈ 35.5 µM). Also, in [4], the “IC90 (μg/ml) EFA 29212” value came out at 27.4 µg/mL (≈ 39.7 µM). The “IC90 (μg/ml) STA 25923” value in [5] stood at 13.8 µg/mL (≈ 20 µM). For the same compound, the “IC90 (μg/ml) LMO 49594” value in assay [6] was 27.4 µg/mL (≈ 39.7 µM). The “IC90 (μg/ml) SPY 8668” value in assay [7] worked out at 27.4 µg/mL (≈ 39.7 µM).

Consider `COc1nc2ccc(-c3ccccc3)cc2cc1C(c1ccccc1)C(O)(CCN(C)C)c1ccccc1` (stereo not shown) [Compound 26], for which the “IC90 (μg/ml) SPN 6305” value in [8] stood at 5.6 µg/mL (≈ 11.1 µM). In addition, the IC90 was determined as 10 µg/mL (≈ 19.9 µM) in assay [3]; 11.3 µg/mL (≈ 22.5 µM) in assay [9]; 4.5 µg/mL (≈ 8.95 µM) in assay [4] (Enterococcus faecalis, ATCC29212, 24 h, read-out: IC90 (μg/ml) EFA 29212); 8.9 µg/mL (≈ 17.7 µM) in assay [5]; 11.3 µg/mL (≈ 22.5 µM) in assay [10]; 4.5 µg/mL (≈ 8.95 µM) in assay [6] (Listeria monocytogenes, ATCC49594, 24 h, read-out: IC90 (μg/ml) LMO 49594). For the same compound, the IC90 in [7] (Streptococcus, ATCC8668, 24 h, read-out: IC90 (μg/ml) SPY 8668) amounted to 2.5 µg/mL (≈ 4.97 µM); in assay [11], 2 µg/mL (≈ 3.98 µM).

Take `CCNCCC(O)(c1ccc(F)cc1F)C(c1ccccc1)c1cc2cc(Br)ccc2nc1OC` (racemic) [B]: the “IC90 (μg/ml) STA 25923” value in assay [5] turned out to be 8.6 µg/mL (≈ 15.9 µM).

Turning to `COc1nc2ccc(Br)cc2cc1C(c1ccccc1)C(O)(CCN)c1ccccc1` (stereo not shown) [Compound 44], the IC90 in assay [3] and in assay [5] was 7.6 µg/mL (≈ 15.9 µM) each time.

On to `COc1nc2ccc(Br)cc2cc1C(c1ccccc1)C(O)(CCN1CCN(C)CC1)c1ccc2ccccc2c1` (racemic) [Compound 137], for which the “IC90 (μg/ml) SPN 6305” value in [8] turned out to be 23.8 µg/mL (≈ 39 µM). Besides, the “IC90 (μg/ml) STA RMETH” value in [1] worked out at 21.2 µg/mL (≈ 34.7 µM). Besides, the “IC90 (μg/ml) STA 25923” value in [5] came to 8.4 µg/mL (≈ 13.8 µM). For the same compound, the “IC90 (μg/ml) PAE 27853” value in assay [11] (24 hours) is 21.2 µg/mL (≈ 34.7 µM).

Take `COc1nc2ccc(Cl)cc2cc1C(c1ccccc1)C(O)(CCN(C)C)c1ccccc1` (stereo not shown) [Compound 31]: the IC90 in [8] (Streptococcus pneumoniae, ATCC6305, 24 h, read-out: IC90 (μg/ml) SPN 6305) is 5.2 µg/mL (≈ 11.3 µM); in assay [3] it was 10.3 µg/mL (≈ 22.3 µM); in assay [9] it was 11.6 µg/mL (≈ 25.2 µM); in assay [10], 10.3 µg/mL (≈ 22.3 µM); in assay [11], 10.3 µg/mL (≈ 22.3 µM). Further, the “IC90 (μg/ml) EFA 29212” value in [4] is 4.6 µg/mL (≈ 9.98 µM). In addition, the “IC90 (μg/ml) LMO 49594” value in [6] turned out to be 4.1 µg/mL (≈ 8.89 µM). For the same compound, the “IC90 (μg/ml) SPY 8668” value in assay [7] was 1.8 µg/mL (≈ 3.9 µM).
